“And” between values parts separate entries of the source, which are not always exact repeats. Equal entries are not always repeated.
What was measured:
[1] = system: Amaranthus tuberculatus, homozygous for the deletion of glycine at amino acid 210 in PPX2L (G210 deletion); assay: Postemergence control of Amaranthus tuberculatus with G210 deletion in PPX2L (Example 2); format: in vivo
[2] = system: Amaranthus tuberculatus with a mutation at amino acid 210; assay: Field trial: control of Amaranthus tuberculatus visually assessed as % weed control (Example 3); format: in vivo
Method: A field trial was carried out in a plot in Canada. The plot size per replicate was set to 10 m^2. Compound 1 and the standard product saflufenacil were applied to about 4 inch (about 10 cm) tall Amaranthus tuberculatus with a mutation at amino acid 210, using a water volume of 300 I/ha. The efficacy of the tested compounds was visually assessed 14 days after the application and expressed in % weed control, whereas ratings range from 100% being complete control and 0% representing weed populations/growth similar to what is observed in the untreated check. Only species present at a sufficient density and consistency were assessed for reliable ratings.

Row | Structure (SMILES) | % Survival out of 14 repetitions ([1]; […], 0.5 g ai/ha^−1, postemergence, 14 days after application, Agridex 1% by volume) [%] | % Survival out of 14 repetitions ([1]; […], 1 g ai/ha^−1, postemergence, 14 days after application, Agridex 1% by volume) [%] | % Survival out of 14 repetitions ([1]; […], 2 g ai/ha^−1, postemergence, 14 days after application, Agridex 1% by volume) [%] | % Survival out of 14 repetitions ([1]; […], 4 g ai/ha^−1, postemergence, 14 days after application, Agridex 1% by volume) [%] | % Survival out of 14 repetitions ([1]; […], 8 g ai/ha^−1, postemergence, 14 days after application, Agridex 1% by volume) [%] | % Survival out of 14 repetitions ([1]; […], 16 g ai/ha^−1, postemergence, 14 days after application, Agridex 1% by volume) [%] | % Survival out of 14 repetitions ([1]; […], 32 g ai/ha^−1, postemergence, 14 days after application, Agridex 1% by volume) [%] | % Survival out of 14 repetitions ([1]; […], 64 g ai/ha^−1, postemergence, 14 days after application, Agridex 1% by volume) [%] | plant survival ([1]; at or beyond 32 g ai/ha) | control of PPO inhibitor herbicide resistant Amaranthus tuberculatus with a mutation at amino acid 210 compared with fomesafen ([1]; in vivo) | control of Amaranthus tuberculatus with a mutation at codon 210 compared to saflufenacil [2] | % Survival out of 14 repetitions ([1]; in vivo) | plant survival ([1]; in vivo)
1 | CCOC(=O)[C@]1(C)CC(c2cc(-n3c(=O)n(C)c(=S)n(C)c3=O)c(F)cc2Cl)=NO1 [compound 1, ethyl (5S)-3-[2-chloro-5-(3,5-dimethyl-2,6-dioxo-4-thioxo-1,3,5-triazinan-1-yl)-4-fluoro-phenyl]-5-methyl-4H-isoxazole-5-carboxylate] | 100 | 100 | 100 | 100 | 86 | 50 | 0 | 0 | no plants survived | superior control | equivalent, if not slightly improved control | – | –
2 | CS(=O)(=O)NC(=O)c1cc(Oc2ccc(C(F)(F)F)cc2Cl)ccc1[N+](=O)[O-] [fomesafen, reference compound] | – | – | – | – | – | – | – | – | – | – | – | 100% and 93% | significant plant survival

— patent US20260372305A1, “A METHOD FOR CONTROLLING WEEDS” (SYNGENTA CROP PROTECTION AG, priority 2022, published 2026)
